What all share (assay): NCI anticancer screen, dose series, 48 h
For assay [1], the system named is OVCAR-4 ovarian.
Assay [2] relates to SNB-19 CNS.
The subject of assay [3] is HCT-15 colon.
The subject of assay [4] is U251 CNS.
Assay [5] deals with RXF 393 renal.
Assay [6] concerns PC-3 prostate.
The test system of assay [7] is TK-10 renal.
For assay [8], the system named is NCI-H226 lung.
Assay [9] concerns SR leukemia.
The test system of assay [10] is MDA-N.
Assay [11] deals with HOP-92 NSCLC.
The subject of assay [12] is K-562 leukemia.
For assay [13], the system named is DU-145 prostate.
The test system of assay [14] is CCRF-CEM leukemia.
Assay [15] has as its system HCC-2998 colon.
Assay [16] has as its system CAKI-1 renal.
Assay [17] deals with SK-MEL-5 melanoma.
Assay [18] concerns IGROV1 ovarian.
Assay [19] relates to SW-620 colon.
Assay [20] relates to HL-60(TB) leukemia.

Each structure is given as a SMILES string.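 1) Cells in 96-well plates. 2) Compound, 48 h, 5 concentrations. 3) Linear interpolation between surrounding doses. 4) Unreached endpoint = highest concentration. TGI marks complete inhibition of growth.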

As to `COc1ccc2cc(-c3ccc(OC)c(OC)c3)c(=O)oc2c1`, the TGI was over 100 µM in assay [1]; over 100 µM in [2]; over 100 µM in [3]; over 100 µM in assay [4]; 68.3 µM in assay [5]; over 100 µM in assay [6]. The TGI in [7], in [8], in [9], in [10], in assay [11] and in assay [12] was over 100 µM throughout. For the same molecule, the TGI in assay [13], in assay [14], in [15], in [16], in assay [17] and in assay [18] was over 100 µM in each case. For the same molecule, the TGI in assay [19] and in [20] was over 100 µM throughout.
Consider `COc1ccc(-c2cn3c(nc4ccccc43)c(C)n2)cc1`, for which the TGI was over 100 µM in assay [1]; over 100 µM in assay [2]; over 100 µM in [3]; over 100 µM in [4]; over 88.9 µM in [5]; over 100 µM in [6]. In addition, the TGI in [7], in assay [8], in [9], in [10], in assay [11] and in assay [12] was over 100 µM in each case. Moreover, the TGI in assay [13], in assay [14], in assay [15], in assay [16], in assay [17] and in assay [18] was over 100 µM each time. For the same molecule, the TGI in assay [19] and in assay [20] was over 100 µM throughout.
With `C/C=C/C=C/C1=NN(c2cccc(S(=O)(=O)O)c2)C2(C1)C(Cl)C(=O)N2c1nc2ccccc2s1` (stereo not given), the TGI in assay [1] worked out at 29.2 µM; in [2] it was 29.9 µM; in assay [3], 31.4 µM; in [4], 23.8 µM; in assay [5] it was 24.3 µM; in [6], 26.3 µM. In addition, the TGI in assay [7] was 27.8 µM; in assay [8], 32 µM; in assay [9], over 54.3 µM; in assay [10], 29 µM; in assay [11], 48.2 µM; in [12] it was over 62.1 µM. Moreover, the TGI in [13] is 26.2 µM; in assay [14], 13.1 µM; in assay [15], 31.5 µM; in [16] it was 20.9 µM; in assay [17], 25.1 µM; in [18], 25.4 µM. The TGI amounted to 43.1 µM in assay [19] and 33.1 µM in [20].
As to `C#CCn1c(=O)c(C)cn(/C(=C/C(=O)OCC)C(=O)OCC)c1=O`, the TGI is 19.3 µM in [1]; 28.6 µM in [2]; 4.07 µM in [3]; 25.2 µM in [4]; 2.01 µM in assay [5]; 25.7 µM in [6]. Also, the TGI in assay [7] was 4.29 µM; in assay [8] it was 4.9 µM; in assay [9], over 100 µM; in [10] it was 43.8 µM; in assay [11], 8.5 µM; in assay [12], over 69.4 µM. In addition, the TGI in [13] was determined as 29.5 µM; in assay [14], 13.5 µM; in assay [15], 32.2 µM; in assay [16] it was 3.18 µM; in [17], 32.9 µM; in assay [18] it was 13 µM. The TGI in assay [19] is 4.16 µM; in [20], over 100 µM.
On to `C/C(=N/NC(=S)N1CCCCCC1)c1ccccc1O`, for which the TGI in [1] is over 33.9 µM; in assay [2] it was over 100 µM; in assay [3], over 100 µM; in [4], over 100 µM; in assay [5], over 93 µM; in [6] it was over 100 µM. Moreover, the TGI in assay [7] is over 100 µM; in [8], over 59.5 µM; in [9], 4.57 µM; in [10], over 100 µM; in assay [11], over 100 µM; in [12] it was over 100 µM. In addition, the TGI in assay [13] was over 69.4 µM; in assay [14], over 30.8 µM; in assay [15], over 42.1 µM; in assay [16], over 96.2 µM; in assay [17], over 37.7 µM; in assay [18] it was over 39.7 µM. Besides, the values for the TGI in assay [19] and in assay [20] were over 100 µM and 7.8 µM, respectively.
As to `Cc1nc2ccc(N=Nc3c(O)ccc4ccccc34)cc2[nH]1`, the TGI was 35.1 µM in assay [1]; over 100 µM in assay [2]; over 63.5 µM in assay [3]; over 67.9 µM in assay [4]; over 57.9 µM in assay [5]; 48.1 µM in assay [6]. The TGI is over 100 µM in [7]; over 100 µM in assay [8]; 55.4 µM in assay [9]; 36.7 µM in [10]; 42.8 µM in assay [11]; over 100 µM in [12]. The TGI is over 100 µM in assay [13]; over 58.3 µM in assay [14]; over 70.5 µM in assay [15]; 49.8 µM in assay [16]; over 65.1 µM in [17]; over 67 µM in assay [18]. In addition, the TGI in assay [19] was over 70 µM; in assay [20] it was 46.8 µM.
As for `C/C(Sc1ccccc1)=C1/CCCN(Cc2ccccc2)C1`, the TGI in [1] was over 100 µM; in assay [2], over 100 µM; in [3], 42.5 µM; in assay [4], 57.8 µM; in assay [5] it was 36.3 µM; in assay [6], 59.9 µM. Besides, the TGI in [7] is 60.4 µM; in [8], 41.6 µM; in assay [9], 35.7 µM; in [10] it was over 100 µM; in assay [11] it was 51.9 µM; in assay [12] it was 38.6 µM. Moreover, the TGI is over 100 µM in assay [13]; 46.4 µM in assay [14]; 53.3 µM in assay [15]; over 100 µM in assay [16]; 28.6 µM in assay [17]; over 100 µM in assay [18]. The TGI in assay [19] was over 100 µM; in assay [20], 32.6 µM.
As for `CC(=O)O[C@@]12[C@@H]3O[C@@]4(O)C[C@]5(C)[C@H]6C[C@@](C(C)C)(O[C@H]5c5ccoc5)O[C@H]1[C@]6(C4)O[C@]2(O)C(C)=CC3(C)C`, the TGI in [1], in [2], in assay [3], in assay [4], in [5] and in [6] was over 100 µM each time. The TGI in assay [7], in [8], in assay [9], in [10], in assay [11] and in assay [12] was over 100 µM in each case. Moreover, the TGI in assay [13], in assay [14], in assay [15], in [16], in [17] and in assay [18] was over 100 µM in each case. In addition, the TGI in assay [19] and in [20] was over 100 µM each time.
With `O=C(O)c1cnccc1-c1cc(=O)[nH]n1-c1ccccc1`, the TGI in assay [1], in assay [2], in assay [3], in assay [4], in assay [5] and in assay [6] was over 100 µM in each case. The TGI in assay [7], in [8], in [9], in assay [10], in assay [11] and in assay [12] was over 100 µM each time. For the same molecule, the TGI in [13] was over 100 µM; in [14] it was over 100 µM; in assay [15], over 63.2 µM; in assay [16] it was over 100 µM; in assay [17], over 100 µM; in assay [18], over 100 µM. The TGI was over 100 µM in [19] and over 87 µM in [20].
Turning to `COC(=O)/C=C1/OC(c2ccc(Br)cc2)=C(Br)C1=O`, the TGI amounted to 11.6 µM in [1]; 28.9 µM in [2]; 14.2 µM in [3]; 6.88 µM in [4]; 11.1 µM in assay [5]; 17.5 µM in assay [6]. Besides, the TGI in assay [7] is 17.6 µM; in assay [8] it was 34.7 µM; in assay [9], 3.31 µM; in assay [10], 12.6 µM; in [11] it was 25.2 µM; in assay [12] it was 6.58 µM. Also, the TGI in assay [13] amounted to 25.4 µM; in [14], 6.22 µM; in assay [15], 18.6 µM; in [16] it was 6.32 µM; in [17], 19.9 µM; in assay [18], 17 µM. Moreover, the TGI in [19] was 7.49 µM; in assay [20], 7.87 µM.
Take `CC(C)(C)C1CCC2c3c([nH]c4ccccc34)C3C(=O)N(c4cccc(Cl)c4)C(=O)C3C2C1` (stereo not given): the TGI was 58.1 µM in assay [1]; over 100 µM in assay [2]; 42.6 µM in assay [3]; 38.4 µM in assay [4]; 22.6 µM in assay [5]; 36.9 µM in assay [6]. In addition, the TGI is 39 µM in [7]; 39.9 µM in assay [8]; over 36 µM in [9]; 24.7 µM in assay [10]; 18.9 µM in [11]; over 49.6 µM in assay [12]. The TGI in assay [13] is 33.2 µM; in assay [14], over 91.8 µM; in assay [15], 12.4 µM; in assay [16], 53.2 µM; in assay [17], 26.3 µM; in assay [18], 45.7 µM. Also, the values for the TGI in [19] and in [20] were 23.2 µM and 13 µM, respectively.

The values above are taken from PubChem BioAssay (NCI).
